# Test results from patent US20260357306A1, “ONE-POT FERMENTATIVE PRODUCTION OF GLYCOLATE OR OTHER HYDROXYCARBOXYLIC ACIDS” (PHYCUS BIOTECHNOLOGIES INC., priority 2023, published 2026).
# Tests used:
# Format in all cases: biochemical
# [1] = biological target: T1, Gluconobacter morbifer alcohol dehydrogenase gmoADH, SEQ ID NO: 207 (Gluconobacter morbifer, UniProt G6XLF0); assay: Alcohol dehydrogenase (EG oxidation) Michaelis-Menten kinetics, gmoADH; settings: role: substrate
# T1 sequence (G6XLF0 1-343): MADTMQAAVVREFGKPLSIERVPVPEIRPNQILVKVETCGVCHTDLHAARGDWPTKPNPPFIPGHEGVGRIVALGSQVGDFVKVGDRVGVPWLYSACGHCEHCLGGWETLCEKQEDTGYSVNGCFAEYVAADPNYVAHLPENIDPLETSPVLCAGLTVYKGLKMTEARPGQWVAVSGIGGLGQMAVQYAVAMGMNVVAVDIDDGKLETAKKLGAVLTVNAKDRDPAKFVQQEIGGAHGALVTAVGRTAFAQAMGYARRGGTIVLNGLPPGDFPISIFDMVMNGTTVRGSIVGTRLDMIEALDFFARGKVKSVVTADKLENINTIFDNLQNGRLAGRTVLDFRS
# Description: (§1) Enzyme expression and purification: The enzymes of interest were genetically engineered in the E. coli BL21 (DE3) strain on a high copy plasmid under control of the T7 promoter. The enzymes were tagged with a hexahistidine (His-tag) sequence to facilitate for purification. Post-expression, the His-tagged enzymes were selectively bound to a nickel-charged immobilized metal affinity chromatography (IMAC) resin, exploiting the high affinity between histidine residues and nickel ions. Upon washing away non-specifically bound proteins, the His-tagged enzymes were eluted with an imidazole-containing buffer and subsequently used for enzymatic assays.
# (§2) Enzyme assays: Standard enzyme characterization protocols were performed to determine the activities of the enzymes. Dehydrogenase activity against the substrates was determined using a continuous assay following the increase in absorbance at 340 nm ε340 (NADH)=6.22 mM^−1. cm^−1, and ε340 (NADPH)=6.2 mM^−1·cm^−1]. […]
# (§3) The candidate alcohol dehydrogenase enzymes were next characterized for their enzymatic activity. […] Reactions were initiated by the addition of the purified enzyme and enzymatic activity was measured by monitoring the formation of the product (glycolaldehyde) over time as described in Example 8.1. […]
# [2] = biological target: Mycobacterium marinum alcohol dehydrogenase mmaADH, SEQ ID NO: 215 (Mycobacterium marinum, UniProt B2HH60); assay: Alcohol dehydrogenase (EG oxidation) Michaelis-Menten kinetics, mmaADH; settings: role: substrate; relative to goxADH
# Chain of Mycobacterium marinum alcohol dehydrogenase mmaADH, SEQ ID NO: 215 (B2HH60 entry or part of it): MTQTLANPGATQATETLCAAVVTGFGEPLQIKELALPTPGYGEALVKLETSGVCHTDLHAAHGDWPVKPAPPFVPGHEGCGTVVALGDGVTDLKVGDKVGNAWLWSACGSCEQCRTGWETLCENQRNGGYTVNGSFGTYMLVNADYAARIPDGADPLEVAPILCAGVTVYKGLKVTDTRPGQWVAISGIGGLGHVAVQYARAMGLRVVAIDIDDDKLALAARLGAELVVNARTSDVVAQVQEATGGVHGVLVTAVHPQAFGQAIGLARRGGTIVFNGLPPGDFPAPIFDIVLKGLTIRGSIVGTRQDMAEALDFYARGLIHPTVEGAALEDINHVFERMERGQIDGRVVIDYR
# Description: as §1, §2, §3
# [3] = biological target: T2, Gluconobacter oxydans alcohol dehydrogenase goxADH (Gox0313), SEQ ID NO: 206 (Gluconobacter oxydans, UniProt Q5FU50); assay: Alcohol dehydrogenase (EG oxidation) Michaelis-Menten kinetics, goxADH; settings: role: substrate; relative to goxADH
# T2 sequence (Q5FU50 1-343): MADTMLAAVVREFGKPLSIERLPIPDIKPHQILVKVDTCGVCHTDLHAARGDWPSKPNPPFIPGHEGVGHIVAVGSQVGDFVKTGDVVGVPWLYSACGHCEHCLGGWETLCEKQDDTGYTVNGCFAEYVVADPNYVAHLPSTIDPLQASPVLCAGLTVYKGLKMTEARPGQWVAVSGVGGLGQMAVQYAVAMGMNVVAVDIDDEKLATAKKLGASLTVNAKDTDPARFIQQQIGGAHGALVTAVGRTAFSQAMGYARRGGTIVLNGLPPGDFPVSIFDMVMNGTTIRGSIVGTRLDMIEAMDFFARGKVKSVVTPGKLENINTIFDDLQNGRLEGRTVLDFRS
# Description: as §1, §2, §3
# [4] = biological target: T3, Gluconobacter diazotrophicus alcohol dehydrogenase gdiADH, SEQ ID NO: 208 (Gluconacetobacter diazotrophicus, UniProt A9HNA5); assay: Alcohol dehydrogenase (EG oxidation) Michaelis-Menten kinetics, gdiADH; settings: role: substrate
# T3 sequence (A9HNA5 1-354): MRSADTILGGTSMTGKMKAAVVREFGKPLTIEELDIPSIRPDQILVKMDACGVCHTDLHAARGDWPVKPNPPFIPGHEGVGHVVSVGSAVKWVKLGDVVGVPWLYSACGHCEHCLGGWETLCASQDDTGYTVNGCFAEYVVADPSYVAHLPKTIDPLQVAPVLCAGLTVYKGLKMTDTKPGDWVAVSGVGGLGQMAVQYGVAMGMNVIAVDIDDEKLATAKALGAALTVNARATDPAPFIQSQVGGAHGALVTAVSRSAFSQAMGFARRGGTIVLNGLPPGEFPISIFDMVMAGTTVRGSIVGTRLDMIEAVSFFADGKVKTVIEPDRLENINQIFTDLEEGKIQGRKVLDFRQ
# Description: as §1, §2, §3
# [5] = biological target: Moraxella sp. (strain TAE123) alcohol dehydrogenase mtaADH, SEQ ID NO: 209 (Moraxella sp. TAE123, UniProt Q8GIX7); assay: Alcohol dehydrogenase (EG oxidation) Michaelis-Menten kinetics, mtaADH; settings: role: substrate; relative to goxADH
# Chain of Moraxella sp. (strain TAE123) alcohol dehydrogenase mtaADH, SEQ ID NO: 209 (Q8GIX7 whole entry): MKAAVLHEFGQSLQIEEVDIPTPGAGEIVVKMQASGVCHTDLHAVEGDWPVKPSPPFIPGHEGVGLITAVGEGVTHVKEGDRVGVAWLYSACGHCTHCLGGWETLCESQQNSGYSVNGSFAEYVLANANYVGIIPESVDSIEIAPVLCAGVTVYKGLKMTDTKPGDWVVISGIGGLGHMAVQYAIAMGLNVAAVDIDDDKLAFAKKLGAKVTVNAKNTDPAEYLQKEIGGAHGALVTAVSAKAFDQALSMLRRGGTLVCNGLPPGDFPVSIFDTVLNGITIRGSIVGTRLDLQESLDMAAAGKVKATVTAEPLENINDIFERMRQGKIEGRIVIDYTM
# Description: as §1, §2, §3
smiles,measurement,setting,value
OCCO [ethylene glycol],Relative Vmax,[1]; relative to goxADH,2.5
same,"maximum catalytic rate (EG turnover rate), fold higher than goxADH",[1]; versus goxADH,2.5 fold
same,Relative Vmax,[2],1.1
same,Relative Vmax,[3],1.0
same,Relative Vmax,[4]; relative to goxADH,3.8
same,"maximum catalytic rate (EG turnover rate), fold higher than goxADH",[4]; versus goxADH,3.8 fold
same,Relative Vmax,[5],1.6
